In assay [1] the test system is farnesyl pyrophosphate synthase in daffodil chromoplasts. Briefly: inhibition of farnesyl pyrophosphate synthase in daffodil chromoplasts (14C-isopentenyl pyrophosphate incorporation). Particulars: unit inferred, IC50 values in nM, read-out: IC50. The assay is classed as biochemical, Narcissus pseudonarcissus. How it is done: The IC50 value may be determined as follows. Daffodil chromoplasts are diluted to a volume of 500 microliters in a buffer containing 0.5M sucrose, 3 mM MgCl2, 1 mM ethylenediaminetetraacetic acid, 20 mM N-tris[hydroxymethyl]methyl-2-aminoethanesulfonic acid, […] N-[2-hydroxyethyl]-piperazine-N'-[2-ethanesulfonic acid], 5 mM L-cysteine, 10 mM sodium fluoride, and 0.1% bovine serum albumin at pH 7.7. The inhibitor to be tested may be dissolved in water other suitable solvent and then added to the reaction mixture. The assay is started by the addition of ^14 C-labeled isopentenyl pyrophosphate (52 Ci/mol) to give a final concentration in the assay of about 3 micromolar. The mixture is incubated at 30° C. with gentle agitation for a period of about 30 min. The reaction may be stopped by the addition of 0.5 mL of saturated NaCl and 2 mL of n-butanol saturated with water. After thorough mixing, the turbid suspensions are centrifuged briefly to separate the layers, and 1 mL of the bright yellow upper butanol layer is added to 10 mL of a suitable scintillation fluid which gives a single phase. The butanol soluble radioactivity is then measured in a scintillation counter.
In addition, the problem of variable quenching differences among different experiments can be essentially eliminated by determining the incorporation of radioactivity relative to controls. Each set of experiments requires two control tubes identical to the test samples except that they contain no inhibitor. One of these is quenched immediately (TO sample) and one is quenched at the end of the normal incubation period (T100 sample).
For each concentration of inhibitor examined the % residual activity is determined from the formula [formula]
Tightly closed daffodil flowers (Narcissus pseudonarcissus) were allowed to open at room temperature. […] Coronae were placed in twice their weight of isolation buffer consisting of 67 mM potassium phosphate, 0.74M sucrose, 5 mM MgCl2, and 0.2% polyvinyl-pyrrolidone at pH 7.6 and were disrupted by 30 seconds of homogenization at high speed in a Waring-type blender. The mixture was filtered through several layers of cheesecloth and 2 layers of 100 micron nylon mesh, and the resulting filtrate was centrifuged at 1000×g for 10 minutes. The pellet was discarded and supernatant was centrifuged at 22,000×g for 20 minutes. […] This solution was centrifuged at 22,000×g for 20 minutes to give orange pellets which were suspended in a buffer of 100 mM tris(hydroxymethyl)aminomethane at pH 7.6 containing 5mM MgCl2 and 2 mM dithiothreitol (1 ml per 10 coronae). This solution was frozen in liquid nitrogen and then stored at -80° C.
Thawed daffodil chromoplasts (100-150 microliters) were diluted to a final volume of 500 microliters in a buffer containing 0.5M sucrose, 3 mM MgCl2, 1 mM ethylenediaminetetraacetic acid, 10 mM N-[2-hydroxyethyl]piperazine-N^1 -[2-ethanesulfonic acid], 5 mM L-cysteine, 10 mM sodium fluoride, and 0.1% bovine serum albumin at pH 7.7. The inhibitor to be tested was dissolved in water or other suitable solvent and was added to the reaction mixture. The assay was started by the addition of ^14 C-labeled isopentenyl pyrophosphate (52 Ci/mol) to give a final concentration in the assay of about 3 micromolar. The mixture was incubated at 30° C. with gentle agitation for a period of about 30 minutes. The reaction was stopped by the addition of 0.5 mL of saturated NaCl and 2 mL of n-butanol saturated with water. After thorough mixing, the turbid suspensions were centrifuged briefly to separate the layers, and 1 mL of the bright yellow upper butanol layer was added to 10 mL of a suitable scintillation fluid which gave a single phase. The butanol soluble radioactivity was then measured in a scintillation counter. Each set of experiments required two control tubes identical to the test samples except that they contain no inhibitor.

Assay [2] deals with wild oat (Avena fatua) (AVEFA). Description: post-emergent herbicidal test, wild oat. The class given is in vivo. As to conditions: Avena fatua, post-emergence, read-out: AVEFA percent control; for pest or weed control at 1000 g/ha: 1.0 kg/ha (*). From the text: (§1) Seeds of several different weed species were planted in sandy loam soil containing only trace organic matter. Propagules were sown in individuals rows using one species per row across the width of an aluminum flat (19.5×9.5×6 cm). The grass weeds planted were green foxtail (Setaria viridis) ("SETVI"), wild oat (Avena fatua) ("AVEFA"), barnyard grass (Enchinochloa crusgalli) ("ECHCG"). Broadleaf weeds utilized were wild mustard (Brassica kaber), also known as Sinapis arvensis, ("SINAR"), velvetleaf (Abutilon theophrasti) ("ABUTH") and morningglory (Ipomoea spp.) ("IPOSS"). Additionally, yellow nutsedge (Cyperus esculentus) ("CYPES"), nutlets were sown. Seeding depths ranged from 1.0 to 1.5 cm and plant densities ranged from 3 to 25 plants per row depending on individual plant species.
(§2) The flats were placed into a greenhouse and watered overhead by sprinkling. The greenhouse environmental systems provided the plants with natural and artificial (via metal halide lamps) lighting to attain 14 hours of light per day. Day and night temperatures were maintained at 29° and 21° C. respectively. The plants were grown for 10 to 12 days (or to the appropriate growth stage) prior to compound application. Grasses were sprayed at a 3 to 4 leaf stage and broadleaves at a 1 to 2 leaf stage. Yellow nutsedge was 5 to 7 cm tall at application.
(§3) Solutions of the test compounds were prepared by weighing out 18.8 and 74.7 mg for 1 and 4 kg/ha applications respectively, of the test compound into a 60 ml wide-mouth bottle, then dissolving the compound in 14.0 ml of deionized water containing 0.5% v/v Tween 20' (polyoxyethylene sorbitan monolaurate emulsifier) as a surfactant. Additional solvents, not exceeding 2 ml (15% of spray volume), were used if needed to dissolve the compound.
(§4) The plants were sprayed inside an enclosed linear spray table with the nozzle set at 30.5 cm (12 inches) above the foliage.
(§5) Treated plants were then returned to a greenhouse and watered daily without wetting the foliage.
(§6) The degree of weed control was evaluated 17-21 days after application and recorded as percentage of control as compared to the growth of the same species in an untreated control flat of the same. Percent control is the total injury to the plants due to all factors including: inhibited emergence, stunting, malformation, chlorosis and other types of plant injury. The control ratings range from 0 to 100 percent, where 0% represents no effect with growth equal to the untreated control and where 100% represents complete kill.

The subject of assay [3] is barnyard grass (Enchinochloa crusgalli) (ECHCG). Description: post-emergent herbicidal test, barnyard grass. As to conditions: Echinochloa crus-galli, post-emergence, read-out: ECHCG percent control; for pest or weed control at 1000 g/ha: 1.0 kg/ha (*). The class given is in vivo.
Source text: as §1, §2, §3, §4, §5, §6

In assay [4] the test system is green foxtail (Setaria viridis) (SETVI). Description: post-emergent herbicidal test, green foxtail. The class given is in vivo. As to conditions: Setaria viridis, post-emergence, read-out: SETVI percent control; for pest or weed control at 1000 g/ha: 1.0 kg/ha (*).
Source text: as §1, §2, §3, §4, §5, §6

Assay [5] deals with velvetleaf (Abutilon theophrasti) (ABUTH). Description: post-emergent herbicidal test, velvetleaf. The assay is classed as in vivo. Particulars: Abutilon theophrasti, post-emergence, read-out: ABUTH percent control; for pest or weed control at 1000 g/ha: 1.0 kg/ha (*).
Source text: as §1, §2, §3, §4, §5, §6

Assay [6] relates to morningglory (Ipomoea spp.) (IPOSS). Description: post-emergent herbicidal test, morningglory. Particulars: Ipomoea, post-emergence, read-out: IPOSS percent control; for pest or weed control at 1000 g/ha: 1.0 kg/ha (*). The assay is classed as in vivo.
Source text: as §1, §2, §3, §4, §5, §6

The subject of assay [7] is wild mustard (Brassica kaber), also known as Sinapis arvensis (SINAR). Description: post-emergent herbicidal test, wild mustard. The assay is classed as in vivo. As to conditions: Brassica, post-emergence, read-out: SINAR percent control; for pest or weed control at 1000 g/ha: 1.0 kg/ha (*).
Source text: as §1, §2, §3, §4, §5, §6

In assay [8] the test system is yellow nutsedge (Cyperus esculentus) (CYPES). Briefly: post-emergent herbicidal test, yellow nutsedge. Particulars: Cyperus, post-emergence, read-out: CYPES percent control; for pest or weed control at 1000 g/ha: 1.0 kg/ha (*). The class given is in vivo.
Source text: as §1, §2, §3, §4, §5, §6

The mark [9] stands for this setting: post-emergent, 4.0 kg/ha, 17-21 days after application.
The mark [10] stands for this setting: post-emergent, 17-21 days after application.

In patent US5756423A, “Method of controlling plants by inhibition of farnesyl pyrophosphate synthase” (Zeneca Limited, priority 1997, dated 1998) one finds IC50 and pest or weed control data, which are given here for 8 molecules.

Where two headings read alike, the source gives them in different places.

As to `CC(C)(C)NCC(P(=O)(O)O)P(=O)(O)O` [Compound 7], the concentration for half-maximal inhibition (IC50) (as a rule, the concentration that inhibits the measured activity by half) in assay [1] (Table I) is 238 nM; in assay [1] (Table II), 239 nM. Moreover, the pest or weed control at 4000 g/ha in assay [2] (setting [9]) was 85%; in assay [3] (setting [9]) it was 50%; in assay [4] (setting [9]) it was 60%; in assay [5] (setting [9]), 5%; in assay [6] (setting [9]) it was 60%; in assay [7] (setting [9]), 100%. For the same molecule, the pest or weed control at 4000 g/ha in assay [8] (setting [9]) was found to be 15%.
Consider `CN(C)CC(P(=O)(O)O)P(=O)(O)O` [Compound 8], for which the IC50 in assay [1] (Table I) and in assay [1] (Table II) was 2900 nM throughout. Also, the pest or weed control at 4000 g/ha in assay [2] turned out to be 5%; in assay [3] it was 5%; in assay [4], 50%; in assay [5], 0%; in assay [6] it was 5%; in assay [7] it was 85%. Moreover, the pest or weed control at 4000 g/ha in assay [8] came to 0%.
On to `O=P(O)(O)C(O)(C1CCCCN1)P(=O)(O)O` (stereo not drawn) [Compound 9], for which the IC50 in assay [1] (Table I) and in assay [1] (Table II) was 209 nM in each case. Further, the pest or weed control at 4000 g/ha in assay [2] (setting [9]) worked out at 60%; in assay [3] (setting [9]), 30%; in assay [4] (setting [9]) it was 100%; in assay [5] (setting [9]) it was 30%; in assay [6] (setting [9]), 30%; in assay [7] (setting [9]), 100%. For the same molecule, in assay [8] (setting [9]), the pest or weed control at 4000 g/ha was found to be 15%.
Regarding `CC1CCCCN1CC(P(=O)(O)O)P(=O)(O)O` (stereo not drawn) [Compound 10], the IC50 in assay [1] (Table I) and in assay [1] (Table II) was 83 nM in each case. In addition, the pest or weed control at 4000 g/ha in assay [2] (setting [9]) came to 100%; in assay [3] (setting [9]) it was 85%; in assay [4] (setting [9]) it was 85%; in assay [5] (setting [9]) it was 50%; in assay [6] (setting [9]), 90%; in assay [7] (setting [9]) it was 100%. Moreover, the pest or weed control at 4000 g/ha in assay [8] (setting [9]) turned out to be 5%.
For `CC1CCC(C)N1CC(P(=O)(O)O)P(=O)(O)O` (stereo not drawn) [Compound 11], the values for the IC50 in assay [1] (Table I) and in assay [1] (Table II) were 650 nM and 610 nM, respectively. Moreover, the pest or weed control at 4000 g/ha in assay [2] (setting [9]) was 30%; in assay [3] (setting [9]) it was 50%; in assay [4] (setting [9]), 50%; in assay [5] (setting [9]), 0%; in assay [6] (setting [9]), 30%; in assay [7] (setting [9]) it was 95%. Besides, the pest or weed control at 4000 g/ha in assay [8] (setting [9]) was 0%.
For `CC(C)CNCC(P(=O)(O)O)P(=O)(O)O` [Compound 12], the IC50 in assay [1] (Table I) and in assay [1] (Table II) was 150 nM throughout. Moreover, the pest or weed control at 4000 g/ha came out at 100% in assay [2] (setting [9]); 98% in assay [3] (setting [9]); 98% in assay [4] (setting [9]); 98% in assay [5] (setting [9]); 90% in assay [6] (setting [9]); 100% in assay [7] (setting [9]). Moreover, the pest or weed control at 4000 g/ha in assay [8] (setting [9]) amounted to 70%.
Regarding `CCN(CC)CC(P(=O)(O)O)P(=O)(O)O` [Compound 13], the IC50 in assay [1] (Table I) and in assay [1] (Table II) was 240 nM in each case. The pest or weed control at 1000 g/ha in assay [2] (setting [10]) came to 40%; in assay [3] (setting [10]) it was 40%; in assay [4] (setting [10]), 80%; in assay [5] (setting [10]) it was 15%; in assay [6] (setting [10]), 10%; in assay [7] (setting [10]), 95%. Further, the pest or weed control at 1000 g/ha in assay [8] (setting [10]) was determined as 5%.
On to `CCCCNCC(P(=O)(O)O)P(=O)(O)O` [Compound 14], for which the IC50 in assay [1] (Table I) and in assay [1] (Table II) was 347 nM throughout. Moreover, the pest or weed control at 1000 g/ha turned out to be 70% in assay [2] (setting [10]); 90% in assay [3] (setting [10]); 95% in assay [4] (setting [10]); 20% in assay [5] (setting [10]); 10% in assay [6] (setting [10]); 85% in assay [7] (setting [10]). For the same molecule, the pest or weed control at 1000 g/ha in assay [8] (setting [10]) was found to be 15%.
